Patent US10836793B2, “Compounds for the treatment of neurodegenerative diseases” (University of South Florida, priority 2018, dated 2020)

Assays:
Aβ42 [1] = molecular target: T1, Aβ42 (Homo sapiens, UniProt P05067); test: Western blot of Aβ42 aggregation; assay type: biochemical; conditions: 40 μM HW-C-9 and 20 μM Aβ; FIG. 6A
T1 construct: and 42 amino acids in length (Aβ42)
Method: (§1) Shown in FIG. 6A is a Western blot of Aβ42, wherein lane 1 is 20 μM of Aβ, lane 2 is 40 μM of HW-155-1 as a control and 20 μM of Aβ, and lane 3 is 40 μM of HW-C-9 and 20 μM of Aβ. Shown in FIG. 6B on the left is mouse brain tissue incubated overnight with and without 25 μM of HW-C-9, and then immunohistochemically stained with Aβ42 antibodies. On the right of FIG. 6B is a graphical quantification of the density and strength of the antibody stains.

[2] = system: Aβ42 amyloid plaques in mouse brain tissue; test: Mouse brain tissue incubated with compound, immunohistochemical staining with Aβ42 antibodies; conditions: mouse brain tissue incubated overnight with 25 μM HW-C-9; FIG. 6B
Method: as §1

[3] = molecular target: human recombinant alpha-synuclein (Homo sapiens, UniProt P37840); test: Western blot of alpha-synuclein aggregation; assay type: biochemical; conditions: aggregated for 7 days in the presence of 25 μg/mL HW-C-9; FIG. 7
Method: The effect of HW-C-9 on synuclein was analyzed with a Western blot. Results are shown in FIG. 7, wherein lane 1 is human recombinant alpha-synuclein (stained with goat anti-human alpha-synuclein antibody) without aggregation as a control, lane 2 is human recombinant alpha-synuclein (stained with goat anti-human alpha-synuclein antibody) aggregated for 7 days, and lane 3 is human recombinant alpha-synuclein (stained with goat anti-human alpha-synuclein antibody) aggregated for 7 days in the presence of 25 μg/mL of HW-C-9.

[4] = system: recombinant human tau protein; test: ThT assay of tau protein aggregation; assay type: biochemical; conditions: 100, 50, 20, 10 and 1 μM HW-C-9; Tau 10 μM; FIG. 5
Method: (§2) The effect of HW-C-9 on Aβ42 was analyzed using the Thioflavin T (ThT) spectroscopic assay. Thioflavin T (ThT) is a benzothiazole salt obtained by the methylation of dehydrothiotoluidine with methanol in the presence of hydrochloric acid. ThT was used as a dye to visualize and quantify the presence or fibrilization of misfolded protein aggregates. Briefly, HW-C-9 in Tris Buffered Saline (TBS, pH 7.5) containing 10 μM ThT was added into a black 96 well plate. Aβ42 protein monomer was freshly thawed and used to make a stock 5 μM solution in TBS. An equal volume of Aβ42 solution was added to each well to a final concentration of 2.5 μM Aβ42 and incubated at 37° C. Time-dependent fluorescence change was monitored by a Synergy 2 plate reader at an excitation wavelength of 440 nm and emission at 482 nm. The fluorescence intensity of ThT was measured over time, as ThT changed fluorescence intensity upon binding to the Aβ42 protein aggregates. 100% aggregation was defined as the fluorescence change of 2.5 μM Aβ42 in TBS buffer containing 5 μM ThT after 24 hours.
The effect of HW-C-9 on recombinant human tau protein was analyzed using the ThT assay, as detailed in Example 2, but with tau protein in place of Aβ42. In FIG. 5, C1 is 100 μM of HW-C-9, C2 is 50 μM of HW-C-9, C3 is 20 μM of HW-C-9, C4 is 10 μM of HW-C-9, and C5 is 1 μM of HW-C-9. […]

Aβ42 [5] = molecular target: T1, Aβ42; test: Thioflavin T (ThT) spectroscopic assay of Aβ42 aggregation; assay type: biochemical; conditions: 1, 5 and 10 μM HW-C-9; Aβ42 5 μM; 37° C.; FIG. 4
Method: as §2
In FIG. 4, C1 is 1 μM of HW-C-9, C3 is 5 μM of HW-C-9, and C4 is 10 μM of HW-C-9. Aβ42 was present in all samples at a concentration of 5 μM. The top curve (red line, “Agg”) is the Aβ42-only control.

T1 sequence (P05067 672-713 limits assumed): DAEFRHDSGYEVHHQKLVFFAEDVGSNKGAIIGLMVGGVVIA

## C=CCOC(=O)N(CC(=O)N[C@@H](Cc1ccccc1)CN(CC(=O)N[C@@H](CCCCN)CN(CC(=O)N[C@@H](CC(C)C)CN(CC(=O)NCCCCCCCC(=O)NCCCC[C@H](NC(=O)CCCCCCCNC(=O)CN(C[C@H](CC(C)C)NC(=O)CN(C[C@H](CCCCN)NC(=O)CN(C[C@H](Cc1ccccc1)NC(=O)CN(C[C@@H](N)CCCCN)C(=O)OCC=C)C(=O)CCc1ccccc1)C(=O)CC(C)C)C(=O)CC(C)C)C(N)=O)C(=O)CC(C)C)C(=O)CC(C)C)C(=O)CCc1ccccc1)C[C@@H](N)CCCCN [HW-C-9]
Aβ42 [1]
  inhibition of Aβ42 aggregation (Western blot): can inhibit aggregation of Aβ42
[2]
  removal of amyloid plaques (density and strength of Aβ42 antibody stains): remove amyloid plaques
[3]
  inhibition of alpha-synuclein aggregation (Western blot): can inhibit aggregation of alpha-synuclein
[4]
  inhibition of tau protein aggregation (ThT fluorescence): can inhibit aggregation of tau protein at all concentrations tested
Aβ42 [5]
  inhibition of Aβ42 aggregation (ThT fluorescence): can inhibit Aβ42 aggregation at all concentrations tested
